Experimental data reported in paper PMC9324199 (Angewandte Chemie (International Ed. in English), 2022).

Target: 5-HT2A (Homo sapiens, UniProt P28223)
Experiment: PDSP radioligand binding

Sequence of 5-HT2A (P28223 whole entry, species assumed): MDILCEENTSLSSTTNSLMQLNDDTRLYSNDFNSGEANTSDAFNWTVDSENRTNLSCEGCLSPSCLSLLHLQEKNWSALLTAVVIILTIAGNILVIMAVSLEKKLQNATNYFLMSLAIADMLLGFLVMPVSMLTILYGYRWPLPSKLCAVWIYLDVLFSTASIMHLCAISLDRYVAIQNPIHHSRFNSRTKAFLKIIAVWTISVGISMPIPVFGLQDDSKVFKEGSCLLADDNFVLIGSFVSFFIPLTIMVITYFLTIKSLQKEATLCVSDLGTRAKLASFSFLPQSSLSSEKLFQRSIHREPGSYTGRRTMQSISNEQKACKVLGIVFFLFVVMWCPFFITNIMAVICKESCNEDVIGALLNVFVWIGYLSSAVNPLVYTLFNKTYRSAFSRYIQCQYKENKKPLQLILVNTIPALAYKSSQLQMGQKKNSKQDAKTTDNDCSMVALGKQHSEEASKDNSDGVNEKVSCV

## COc1ccc(N=Nc2ccc3[nH]cc(CCN(C)C)c3c2)cc1 [2h]
  Ki: 225 nM
